Experimental data published in patent USRE42890E1, “Furazanobenzimidazoles” (Basilea Pharmaceutica AG, priority 2003, dated 2011).

Each compound was assayed on HeLa (assay: MTS proliferation assay, HeLa). Details: 72 h incubation, read-out: MTS proliferation assay IC 50 HeLa.
Format: cell-based, human
Method: (§1) Cell lines are cultured in RPMI-1640 tissue culture medium containing either 5% or 10% fetal calf serum, 0.05 mM 2-mercaptoethanol, 2 mM glutamine and penicillin/streptomycin 50 μg/ml (complete medium) (Sigma, Buchs, Switzerland). General growth conditions are 37° C. and 7.5% CO2.
(§2) The following human cell lines (either EGFP transfected or not) are being used: HeLa (ATCC: CCL-2), KB (ATCC: CCL-17), MCF7 (ATCC: HTB-22), SK-BR-3 (ATCC: HTB-30), SK-Mel 1 (ATCC: HTB-67), SK-Mel 28 (ATCC: HTB-72), PC-3 (ATCC: CRL-1435), SW 480 (ATCC: CCL-228), NCl-H460 (ATCC: HTB-177), NCl-H1792 (ATCC: CRL-5895), HT1080 (ATCC: CCL-21), Jurkat (ATCC: TIB-152), Ramos (ATCC: CRL-1596), Raji (ATCC: CCL-86), H9 (ATCC: HTB-176), Hut78 (ATCC: TIB-161), K562 (ATCC: CCL 243), HL-60 (ATCC: CCL 240), U-87MG (ATCC: HTB-14), HepG2 (ATCC: HB-8065), U-2 OS (ATCC: HTB-96), Saos-2 (ATCC: HTB-85), U937 (ATCC: CRL 1593), Hs 578T (ATCC: HTB 126), HBL-100 (ATCC: HTB 124), Molt-4 (ATCC: CRL 1582).
(§3) The assay is performed in 96 well tissue culture plates. The cells (range: 1.5*10^3-10^4) are seeded out in 80 μl complete medium 24 h prior to compound treatment. The test compounds are added in 20 μl complete medium containing max 5% DMSO. The final compound concentrations in the assays are 10 μM, 3 μM, 1 μM and 0.3 μM, respectively. The assay plates are incubated for 72 h at culture conditions. The MTS reagent is prepared according to the manufacturer's protocol (Promega G1111). 20 μl MTS reagent are added to each well, the assay plates are quickly spun and incubated for another 3 h at culture conditions. Subsequently, the plates are shortly shaked and absorption measured with a microplate-reader at 492 nm.

SMILES | IC50 [nM]
Nc1nonc1-c1nc2ccccc2n1CC(=NO)c1ccccc1 (mixture of isomers) [Example 17] | > 1000

Same assay, conditions: Homo sapiens, 72 h incubation, read-out: MTS proliferation assay IC 50 HeLa

SMILES | IC50 [nM]
Nc1nonc1-c1nc2ccccc2n1CC(=O)c1ccccc1 [Example 1, 4-(1-Phenacyl-1H-benzimidazol-2-yl)-furazan-3-ylamine] | 100 to 1000

Each compound was assayed on MRC5 (assay: MTS proliferation assay, MRC5). Details: Homo sapiens; MRC5, 72 h incubation; read-out: MTS proliferation assay IC 50 MRC5.
Format: cell-based
Method: as §1, §3

SMILES | IC50 [nM]
Nc1nonc1-c1nc2ccccc2n1CC(=O)c1ccccc1 [Example 1, 4-(1-Phenacyl-1H-benzimidazol-2-yl)-furazan-3-ylamine] | > 1000
CNc1nonc1-c1nc2ccccc2n1CC(=O)c1ccc(Cl)cc1 [Example 3, Methyl-{4-[1-(4-chlorophenacyl)-1H-benzimidazol-2-yl]-furazan-3-yl}-amine] | > 1000

These compounds were tested on Jurkat (assay: MTS proliferation assay, Jurkat). Details: 72 h incubation, read-out: MTS proliferation assay IC 50 Jurkat.
Format: cell-based, human
Method: as §1, §2, §3

SMILES | IC50 [nM]
Nc1nonc1-c1nc2ccccc2n1CC(=NO)c1ccccc1 (mixture of isomers) [Example 17] | > 1000

Same assay, conditions: Homo sapiens, 72 h incubation, read-out: MTS proliferation assay IC 50 Jurkat

SMILES | IC50 [nM]
Nc1nonc1-c1nc2ccccc2n1CC(=O)c1ccccc1 [Example 1, 4-(1-Phenacyl-1H-benzimidazol-2-yl)-furazan-3-ylamine] | 10 to 100
CNc1nonc1-c1nc2ccccc2n1CC(=O)c1ccc(Cl)cc1 [Example 3, Methyl-{4-[1-(4-chlorophenacyl)-1H-benzimidazol-2-yl]-furazan-3-yl}-amine] | 100 to 1000

Each compound was assayed on adherent cells or suspension cells (assay: Hoechst 33342 nuclear staining (fraction of apoptotic nuclei)). Details: H460, conc 0.01 μm.
Format: cell-based
Parameters: key: 0 relating to no activity; 1 relating to weak activity comprising less than 70% of the cells; score 2 relating to strong activity comprising more than 70% of the cells
Method: as §1
This assay is performed in 96 well tissue culture plates. Appropriate number of cells (adherent cells: 3-5*10^3, suspension cells: 8-10*10^3) are being seeded out in 80 μl complete medium. Adherent cells are incubated for 24 h for proper spreading out before addition of test compounds while suspension cells are immediately treated with test compounds after seeding out. The test compounds are added in 20 μl complete medium containing max 5% DMSO. […] After 24 h or 48 h incubation at culture conditions, 10 μl medium containing Hoechst 33342 dye (Sigma B-2261) at 2-5 μg/ml are added to each well. The assay plates are then further incubated for 30 minutes and subsequently analyzed with a standard inverted fluorescence microscope.
The readout allows the determination of the fraction of apoptotic nuclei as well as other morphological criteria specific for apoptosis as a function of the treatment. The following scores are used: 0 relating to no activity, 1 relating to weak activity comprising less than 70% of the cells and score 2 relating to strong activity comprising more than 70% of the cells.

SMILES | Hoechst 33342 nuclear staining score
Nc1nonc1-c1nc2ccccc2n1CC(=O)c1ccccc1 [Example 1, 4-(1-Phenacyl-1H-benzimidazol-2-yl)-furazan-3-ylamine] | 0
Nc1nonc1-c1nc2ccccc2n1CC(=NO)c1ccccc1 (mixture of isomers) [Example 17] | 0

Same assay, conditions: H460, conc 0.1 μm

SMILES | Hoechst 33342 nuclear staining score
Nc1nonc1-c1nc2ccccc2n1CC(=O)c1ccccc1 [Example 1, 4-(1-Phenacyl-1H-benzimidazol-2-yl)-furazan-3-ylamine] | 0
Nc1nonc1-c1nc2ccccc2n1CC(=NO)c1ccccc1 (mixture of isomers) [Example 17] | 0

Same assay, conditions: H460, conc 1 μm

SMILES | Hoechst 33342 nuclear staining score
Nc1nonc1-c1nc2ccccc2n1CC(=O)c1ccccc1 [Example 1, 4-(1-Phenacyl-1H-benzimidazol-2-yl)-furazan-3-ylamine] | 2 (score 2 relating to strong activity comprising more than 70% of the cells)
Nc1nonc1-c1nc2ccccc2n1CC(=NO)c1ccccc1 (mixture of isomers) [Example 17] | 0

Same assay, conditions: HeLa, conc 0.01 μm

SMILES | Hoechst 33342 nuclear staining score
Nc1nonc1-c1nc2ccccc2n1CC(=O)c1ccccc1 [Example 1, 4-(1-Phenacyl-1H-benzimidazol-2-yl)-furazan-3-ylamine] | 0
Nc1nonc1-c1nc2ccccc2n1CC(=NO)c1ccccc1 (mixture of isomers) [Example 17] | 0
CNc1nonc1-c1nc2ccccc2n1CC(=O)c1ccc(Cl)cc1 [Example 3, Methyl-{4-[1-(4-chlorophenacyl)-1H-benzimidazol-2-yl]-furazan-3-yl}-amine] | 0

Same assay, conditions: HeLa, conc 0.1 μm

SMILES | Hoechst 33342 nuclear staining score
Nc1nonc1-c1nc2ccccc2n1CC(=O)c1ccccc1 [Example 1, 4-(1-Phenacyl-1H-benzimidazol-2-yl)-furazan-3-ylamine] | 0
Nc1nonc1-c1nc2ccccc2n1CC(=NO)c1ccccc1 (mixture of isomers) [Example 17] | 0
CNc1nonc1-c1nc2ccccc2n1CC(=O)c1ccc(Cl)cc1 [Example 3, Methyl-{4-[1-(4-chlorophenacyl)-1H-benzimidazol-2-yl]-furazan-3-yl}-amine] | 0

Same assay, conditions: HeLa, conc 1 μm

SMILES | Hoechst 33342 nuclear staining score
Nc1nonc1-c1nc2ccccc2n1CC(=O)c1ccccc1 [Example 1, 4-(1-Phenacyl-1H-benzimidazol-2-yl)-furazan-3-ylamine] | 2 (score 2 relating to strong activity comprising more than 70% of the cells)
Nc1nonc1-c1nc2ccccc2n1CC(=NO)c1ccccc1 (mixture of isomers) [Example 17] | 0
CNc1nonc1-c1nc2ccccc2n1CC(=O)c1ccc(Cl)cc1 [Example 3, Methyl-{4-[1-(4-chlorophenacyl)-1H-benzimidazol-2-yl]-furazan-3-yl}-amine] | 0

Same assay, conditions: Jily, conc 0.01 μm

SMILES | Hoechst 33342 nuclear staining score
Nc1nonc1-c1nc2ccccc2n1CC(=NO)c1ccccc1 (mixture of isomers) [Example 17] | 0

Same assay, conditions: Jily, conc 0.1 μm

SMILES | Hoechst 33342 nuclear staining score
Nc1nonc1-c1nc2ccccc2n1CC(=NO)c1ccccc1 (mixture of isomers) [Example 17] | 0

Same assay, conditions: Jily, conc 1 μm

SMILES | Hoechst 33342 nuclear staining score
Nc1nonc1-c1nc2ccccc2n1CC(=NO)c1ccccc1 (mixture of isomers) [Example 17] | 0

Same assay, conditions: Jurkat, conc 0.01 μm

SMILES | Hoechst 33342 nuclear staining score
Nc1nonc1-c1nc2ccccc2n1CC(=O)c1ccccc1 [Example 1, 4-(1-Phenacyl-1H-benzimidazol-2-yl)-furazan-3-ylamine] | 0
Nc1nonc1-c1nc2ccccc2n1CC(=NO)c1ccccc1 (mixture of isomers) [Example 17] | 0
CNc1nonc1-c1nc2ccccc2n1CC(=O)c1ccc(Cl)cc1 [Example 3, Methyl-{4-[1-(4-chlorophenacyl)-1H-benzimidazol-2-yl]-furazan-3-yl}-amine] | 0

Same assay, conditions: Jurkat, conc 0.1 μm

SMILES | Hoechst 33342 nuclear staining score
Nc1nonc1-c1nc2ccccc2n1CC(=O)c1ccccc1 [Example 1, 4-(1-Phenacyl-1H-benzimidazol-2-yl)-furazan-3-ylamine] | 0
Nc1nonc1-c1nc2ccccc2n1CC(=NO)c1ccccc1 (mixture of isomers) [Example 17] | 0
CNc1nonc1-c1nc2ccccc2n1CC(=O)c1ccc(Cl)cc1 [Example 3, Methyl-{4-[1-(4-chlorophenacyl)-1H-benzimidazol-2-yl]-furazan-3-yl}-amine] | 0

Same assay, conditions: Jurkat, conc 1 μm

SMILES | Hoechst 33342 nuclear staining score
Nc1nonc1-c1nc2ccccc2n1CC(=O)c1ccccc1 [Example 1, 4-(1-Phenacyl-1H-benzimidazol-2-yl)-furazan-3-ylamine] | 2 (score 2 relating to strong activity comprising more than 70% of the cells)
Nc1nonc1-c1nc2ccccc2n1CC(=NO)c1ccccc1 (mixture of isomers) [Example 17] | 0
CNc1nonc1-c1nc2ccccc2n1CC(=O)c1ccc(Cl)cc1 [Example 3, Methyl-{4-[1-(4-chlorophenacyl)-1H-benzimidazol-2-yl]-furazan-3-yl}-amine] | 0

Same assay, conditions: MRC5, conc 0.01 μm

SMILES | Hoechst 33342 nuclear staining score
Nc1nonc1-c1nc2ccccc2n1CC(=O)c1ccccc1 [Example 1, 4-(1-Phenacyl-1H-benzimidazol-2-yl)-furazan-3-ylamine] | 0
Nc1nonc1-c1nc2ccccc2n1CC(=NO)c1ccccc1 (mixture of isomers) [Example 17] | 0
CNc1nonc1-c1nc2ccccc2n1CC(=O)c1ccc(Cl)cc1 [Example 3, Methyl-{4-[1-(4-chlorophenacyl)-1H-benzimidazol-2-yl]-furazan-3-yl}-amine] | 0

Same assay, conditions: MRC5, conc 0.1 μm

SMILES | Hoechst 33342 nuclear staining score
Nc1nonc1-c1nc2ccccc2n1CC(=O)c1ccccc1 [Example 1, 4-(1-Phenacyl-1H-benzimidazol-2-yl)-furazan-3-ylamine] | 0
Nc1nonc1-c1nc2ccccc2n1CC(=NO)c1ccccc1 (mixture of isomers) [Example 17] | 0
CNc1nonc1-c1nc2ccccc2n1CC(=O)c1ccc(Cl)cc1 [Example 3, Methyl-{4-[1-(4-chlorophenacyl)-1H-benzimidazol-2-yl]-furazan-3-yl}-amine] | 0

Same assay, conditions: MRC5, conc 1 μm

SMILES | Hoechst 33342 nuclear staining score
Nc1nonc1-c1nc2ccccc2n1CC(=O)c1ccccc1 [Example 1, 4-(1-Phenacyl-1H-benzimidazol-2-yl)-furazan-3-ylamine] | 1 (1 relating to weak activity comprising less than 70% of the cells)
Nc1nonc1-c1nc2ccccc2n1CC(=NO)c1ccccc1 (mixture of isomers) [Example 17] | 0
CNc1nonc1-c1nc2ccccc2n1CC(=O)c1ccc(Cl)cc1 [Example 3, Methyl-{4-[1-(4-chlorophenacyl)-1H-benzimidazol-2-yl]-furazan-3-yl}-amine] | 0

Same assay, conditions: PBLs, conc 0.01 μm

SMILES | Hoechst 33342 nuclear staining score
Nc1nonc1-c1nc2ccccc2n1CC(=O)c1ccccc1 [Example 1, 4-(1-Phenacyl-1H-benzimidazol-2-yl)-furazan-3-ylamine] | 0
Nc1nonc1-c1nc2ccccc2n1CC(=NO)c1ccccc1 (mixture of isomers) [Example 17] | 0
CNc1nonc1-c1nc2ccccc2n1CC(=O)c1ccc(Cl)cc1 [Example 3, Methyl-{4-[1-(4-chlorophenacyl)-1H-benzimidazol-2-yl]-furazan-3-yl}-amine] | 0

Same assay, conditions: PBLs, conc 0.1 μm

SMILES | Hoechst 33342 nuclear staining score
Nc1nonc1-c1nc2ccccc2n1CC(=O)c1ccccc1 [Example 1, 4-(1-Phenacyl-1H-benzimidazol-2-yl)-furazan-3-ylamine] | 0
Nc1nonc1-c1nc2ccccc2n1CC(=NO)c1ccccc1 (mixture of isomers) [Example 17] | 0
CNc1nonc1-c1nc2ccccc2n1CC(=O)c1ccc(Cl)cc1 [Example 3, Methyl-{4-[1-(4-chlorophenacyl)-1H-benzimidazol-2-yl]-furazan-3-yl}-amine] | 0

Same assay, conditions: PBLs, conc 1 μm

SMILES | Hoechst 33342 nuclear staining score
Nc1nonc1-c1nc2ccccc2n1CC(=O)c1ccccc1 [Example 1, 4-(1-Phenacyl-1H-benzimidazol-2-yl)-furazan-3-ylamine] | 0
Nc1nonc1-c1nc2ccccc2n1CC(=NO)c1ccccc1 (mixture of isomers) [Example 17] | 0
CNc1nonc1-c1nc2ccccc2n1CC(=O)c1ccc(Cl)cc1 [Example 3, Methyl-{4-[1-(4-chlorophenacyl)-1H-benzimidazol-2-yl]-furazan-3-yl}-amine] | 0
